How the values were obtained:
[1] = system: iNOS mRNA; test: iNOS mRNA expression by RT-PCR in cytomix-treated primary epithelial cells; assay type: cell-based, human; settings: primary epithelial cells treated 4 hours with cytomix
Protocol: Human primary epithelial cells are cultured from normal donor tissue. Explant cultures of tissue obtained from normal human lung transplant donors provided human primary epithelial (HPE) cells. The HPE cells were cultured in Ham's F12 nutrient medium containing 5% (v/v) fetal calf serum (FCS), 1 μM hydrocortisone, 5 ng/ml EGF (epithelial growth factor), 10 μg/ml insulin, 10 nM retinoic acid, 0.5 μg/ml transferrin, 2 μg/ml triiodothyronine, 1.5 μg/ml NaHCO3, 100 μg/ml penicillin, 100 μg/ml streptomycin and 0.25 μg/m amphotericin B; the cells were incubated at 37° C. in a humidified atmosphere containing 95% (v/v) air, 5% (v/v) CO2. The HPE cells were cultured for the last 24 hours prior to the experimental treatments under the same conditions except that additive free Ham's F12 media was substituted for the supplemented Ham's F12 media described above.
Expression of mRNA for iNOS was evaluated by RT-PCR of RNA extracted from the cells using the Qiagen RNeasy mini kit as directed by the manufacturer (Crawley, Sussex, U.K.). RT-PCR was performed according to routine methods. […]

[2] = system: Steroid naive patients suffering from COPD; test: Oral or inhaled resveratrol vs inhaled glucocorticoids in COPD, steroid naive patients (Example 5); assay type: in vivo, human; settings: 12 to 24 months
Text: Steroid naive patients suffering from different COPDs patients are selected and divided into populations according to the COPD. Chronic bronchitis populations and emphysema populations are appropriately studied. The populations are divided in terms of progression of their COPD into subpopulations early or mild, mid-stage or moderate, and advanced impairment of lung function. The study is generally patterned after the asthma studies with modifications appropriate to the clinical and histopathologic evaluation of COPD disease, and the references listed in the preceding examples may be applied as appropriate. One major difference is that the COPD study should last for 1 to 2 years or longer, because of the chronic nature of COPD. Each subpopulation is divided equally and randomly into three groups. […]
Patients are medically monitored for clinical symptoms of COPD throughout the study, including frequency and severity of hypoxemic and respiratiry acidotic exacerbations. […] In addition exhaled nitric oxide (NO) and carbon monoxide (CO) levels may be measured at more frequent intervals, such as every other week. Forced expiratory volume (FEV) and forced inspiratory volume (FIV) are also evaluated to measure airway patency as a direct measure of clinical morbidity and to determine correlation the histopathologic and other indicators of clinical disease. […]

[3] = system: COPD patients; test: Oral resveratrol clinical evaluation in COPD (Example 8); assay type: in vivo, human; settings: oral, 200, 2000 or 3000 mg/day, about six months
Protocol: Resveratrol is evaluated clinically for efficacy in treating COPD. The study is generally patterned after the asthma studies with modifications appropriate to the clinical and histopathologic evaluation of COPD disease, and the references listed in the preceding examples may be applied as appropriate. Smokers are treated once or more per day with gelatin capsules containing resveratrol. The different populations of COPD patients are subdivided into subpopulations: emphysema patients, bronchitis patients and other COPD. Patients are divided randomly and blindly into four approximately equal groups that receive either 0 (placebo), 200, 2000, or 3000 mg/day resveratrol for about six months in oral doses of 0, 50, 500, or 750 mg administered 4 times daily for about six months.
Patients are medically monitored for clinical symptoms of COPD throughout the study, including frequency and severity of hypoxemic and respiratiry acidotic exacerbations. In addition, induced sputum samples are obtained from the patients at days 0, 30, 90, and 180 and neutrophil counts are performed and the samples are assayed for IL-8 and myeloperoxidase by routine methods. Forced expiratory volume (FEV) and forced inspiratory volume (FIV) are also evaluated to measure airway patency as a direct measure of clinical morbidity and to determine correlation the histopathologic and other indicators of clinical disease. […]

Oc1ccc(/C=C/c2cc(O)cc(O)c2)cc1 [Resveratrol, 3,5,4′-trihydroxystilbene]
inhibition of iNOS expression as measured by mRNA [1]: inhibited iNOS expression | efficacy in treating COPD compared with inhaled steroids ([2]; oral or pulmonary resveratrol vs pulmonary budenoside): more effective for treating COPD than inhaled steroids | systemic effects compared with inhaled glucocorticosteroids ([2]; oral or pulmonary resveratrol): fewer systemic effects | efficacy in treating COPD [3]: effective for treating COPD
